From patent US20230133958A1, “COMPOUNDS USEFUL IN MODULATING EGFR AND PI3K” (Mekanistic Therapeutics LLC, priority 2021, published 2023)

How the values were obtained:
EGFR = EGFR (Homo sapiens, UniProt P00533); test: Z'-LYTE / Adapta biochemical kinase assay, EGFR; conditions: concentration of 100 nM/liter; read-out: Percent Inhibition of target enzymes, EGFR
Text: (§1) The Z′-LYTE® biochemical assay employs a fluorescence-based, coupled-enzyme format and is based on the differential sensitivity of phosphorylated and non-phosphorylated peptides to proteolytic cleavage. The peptide substrate is labeled with two fluorophores—one at each end—that make up a FRET pair. In the primary reaction, the kinase transfers the gamma-phosphate of ATP to a single tyrosine, serine or threonine residue in a synthetic FRET-peptide. In the secondary reaction, a site-specific protease recognizes and cleaves non-phosphorylated FRET-peptides. Phosphorylation of FRET-peptides suppresses cleavage by the Development Reagent. Cleavage disrupts FRET between the donor (i.e., coumarin) and acceptor (i.e., fluorescein) fluorophores on the FRET-peptide, whereas uncleaved, phosphorylated FRET-peptides maintain FRET. A ratiometric method, which calculates the ratio (the Emission Ratio) of donor emission to acceptor emission after excitation of the donor fluorophore at 400 nm, is used to quantitate reaction progress.
(§2) A significant benefit of this ratiometric method for quantitating reaction progress is the elimination of well-to-well variations in FRET-peptide concentration and signal intensities. As a result, the assay yields very high Z′-factor values (>0.7) at a low percent phosphorylation.
(§3) Both cleaved and uncleaved FRET-peptides contribute to the fluorescence signals and therefore to the Emission Ratio. The extent of phosphorylation of the FRET-peptide can be calculated from the Emission Ratio. The Emission Ratio will remain low if the FRET-peptide is phosphorylated (i.e., no kinase inhibition) and will be high if the FRET-peptide is non-phosphorylated (i.e., kinase inhibition).
(§4) Enzyme: The ADAPTA universal kinase assay is a homogenous, fluorescent based immunoassay for the detection of ADP. In contrast to ATP depletion assays, the ADAPTA assay is extremely sensitive to ADP formation such that a majority of the signal change occurs in the first 10-20% conversion of ATP to ADP. This makes the ADAPTA universal kinase assay ideally suited for use with low activity kinases.
(§5) The principle of the ADAPTA universal kinase assay is outlined below. The assay itself can be divided into two phases: a kinase reaction phase, and an ADP detection phase. In the kinase reaction phase, all components required for the kinase reaction are added to the well, and the reaction is allowed to incubate for 60 minutes. After the reaction, a detection solution consisting of a europium labeled anti-ADP antibody, an Alexa Fluor® 647 labeled ADP tracer, and EDTA (to stop the kinase reaction) is added to the assay well. ADP formed by the kinase reaction (in the absence of an inhibitor) will displace the Alexa Fluor® 647 labeled ADP tracer from the antibody, resulting in a decrease in the TR-FRET signal. In the presence of an inhibitor, the amount of ADP formed by the kinase reaction is reduced, and the resulting intact antibody-tracer interaction results in a high TR-FRET signal.
(§6) Test Compounds: The Test Compounds are screened in 1% DMSO (final) in the well. For 10 point titrations, 3-fold serial dilutions are conducted from the starting concentration of the customer’s choosing.
(§7) Peptide/Kinase Mixtures: All Peptide/Kinase Mixtures are diluted to a 2X working concentration in the appropriate Kinase Buffer.
(§8) ATP Solution: All ATP Solutions are diluted to a 4X working concentration in Kinase Buffer (50 mM HEPES pH 7.5, 0.01% BRIJ-35, 10 mM MgCl2,1 mM EGTA). ATP Km apparent is previously determined using a Z′-LYTE® assay.
(§9) Development Reagent Solution: The Development Reagent is diluted in Development Buffer.
(§10) Assay Protocol: Bar-coded Corning, low volume NBS, black 384-wellplate (Corning Cat. #4514) 1. 2.5 µL - 4X Test Compound or 100 nL 100X plus 2.4 µL kinase buffer. 2. 5 µL - 2X Peptide/Kinase Mixture. 3. 2.5 µL - 4X ATP Solution. 4. 30-second plate shake. 5. 60-minute Kinase Reaction incubation at room temperature. 6. 5 µL - Development Reagent Solution. 7. […]

PI3Kα = PI3Kα (Homo sapiens, UniProt P42336); test: Z'-LYTE / Adapta biochemical kinase assay, PI3Kα; conditions: concentration of 100 nM/liter; read-out: Percent Inhibition of target enzymes, PI3K A
PI3Kα, sequence (P42336 whole entry): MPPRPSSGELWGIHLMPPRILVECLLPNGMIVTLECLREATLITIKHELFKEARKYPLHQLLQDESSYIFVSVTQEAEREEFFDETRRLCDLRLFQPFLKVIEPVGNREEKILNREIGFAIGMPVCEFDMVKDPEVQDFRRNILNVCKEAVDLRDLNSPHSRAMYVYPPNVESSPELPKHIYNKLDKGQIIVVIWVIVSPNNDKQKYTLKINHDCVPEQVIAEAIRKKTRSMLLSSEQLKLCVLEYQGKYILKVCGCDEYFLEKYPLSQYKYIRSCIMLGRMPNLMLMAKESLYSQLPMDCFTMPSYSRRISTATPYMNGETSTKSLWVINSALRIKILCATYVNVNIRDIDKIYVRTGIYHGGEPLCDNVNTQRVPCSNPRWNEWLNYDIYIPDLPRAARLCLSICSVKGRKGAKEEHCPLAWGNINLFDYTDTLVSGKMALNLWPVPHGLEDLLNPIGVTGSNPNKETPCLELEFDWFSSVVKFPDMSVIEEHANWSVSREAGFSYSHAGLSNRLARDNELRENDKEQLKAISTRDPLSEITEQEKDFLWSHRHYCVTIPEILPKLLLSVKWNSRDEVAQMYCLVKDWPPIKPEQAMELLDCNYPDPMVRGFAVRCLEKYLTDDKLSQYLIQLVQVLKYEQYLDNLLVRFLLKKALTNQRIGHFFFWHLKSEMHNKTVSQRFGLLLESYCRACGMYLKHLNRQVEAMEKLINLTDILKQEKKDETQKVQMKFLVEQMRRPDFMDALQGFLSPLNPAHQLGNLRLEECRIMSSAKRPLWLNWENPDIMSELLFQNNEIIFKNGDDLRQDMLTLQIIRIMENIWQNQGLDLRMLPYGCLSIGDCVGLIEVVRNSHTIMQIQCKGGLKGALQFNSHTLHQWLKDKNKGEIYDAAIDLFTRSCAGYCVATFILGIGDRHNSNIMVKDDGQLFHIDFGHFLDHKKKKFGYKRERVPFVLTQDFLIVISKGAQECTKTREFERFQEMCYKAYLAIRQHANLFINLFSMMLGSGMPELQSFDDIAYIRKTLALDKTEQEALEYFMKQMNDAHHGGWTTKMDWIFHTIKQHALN
PI3Kα, sequence (P27986 whole entry partner): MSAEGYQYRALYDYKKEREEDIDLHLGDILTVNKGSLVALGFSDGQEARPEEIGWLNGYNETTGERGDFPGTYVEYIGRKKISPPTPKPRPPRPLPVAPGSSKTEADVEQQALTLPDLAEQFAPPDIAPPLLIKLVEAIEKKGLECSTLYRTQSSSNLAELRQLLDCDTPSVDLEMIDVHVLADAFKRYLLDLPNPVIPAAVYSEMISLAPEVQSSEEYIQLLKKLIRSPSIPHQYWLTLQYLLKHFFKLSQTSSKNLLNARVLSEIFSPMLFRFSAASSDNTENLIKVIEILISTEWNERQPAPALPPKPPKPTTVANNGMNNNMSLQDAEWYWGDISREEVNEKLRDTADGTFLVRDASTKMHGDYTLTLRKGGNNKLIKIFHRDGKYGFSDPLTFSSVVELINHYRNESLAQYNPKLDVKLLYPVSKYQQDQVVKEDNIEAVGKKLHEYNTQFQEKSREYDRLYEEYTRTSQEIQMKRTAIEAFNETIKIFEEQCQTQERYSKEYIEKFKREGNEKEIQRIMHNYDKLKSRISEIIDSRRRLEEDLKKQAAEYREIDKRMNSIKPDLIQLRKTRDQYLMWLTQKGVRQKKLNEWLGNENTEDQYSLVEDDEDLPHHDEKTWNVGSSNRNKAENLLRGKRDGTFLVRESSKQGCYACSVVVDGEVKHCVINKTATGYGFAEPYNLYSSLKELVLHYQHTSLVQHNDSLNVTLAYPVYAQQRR
Text: as §1, §2, §3, §4, §5, §6, §7, §8, §9, §10

DNA-PK = DNA-PK (Homo sapiens, UniProt P78527); test: Z'-LYTE / Adapta biochemical kinase assay, DNA-PK; conditions: concentration of 100 nM/liter; read-out: Percent Inhibition of target enzymes, DNA-PK
Text: as §1, §2, §3, §4, §5, §6, §7, §8, §9, §10

EGFR, sequence (P00533 25-1210): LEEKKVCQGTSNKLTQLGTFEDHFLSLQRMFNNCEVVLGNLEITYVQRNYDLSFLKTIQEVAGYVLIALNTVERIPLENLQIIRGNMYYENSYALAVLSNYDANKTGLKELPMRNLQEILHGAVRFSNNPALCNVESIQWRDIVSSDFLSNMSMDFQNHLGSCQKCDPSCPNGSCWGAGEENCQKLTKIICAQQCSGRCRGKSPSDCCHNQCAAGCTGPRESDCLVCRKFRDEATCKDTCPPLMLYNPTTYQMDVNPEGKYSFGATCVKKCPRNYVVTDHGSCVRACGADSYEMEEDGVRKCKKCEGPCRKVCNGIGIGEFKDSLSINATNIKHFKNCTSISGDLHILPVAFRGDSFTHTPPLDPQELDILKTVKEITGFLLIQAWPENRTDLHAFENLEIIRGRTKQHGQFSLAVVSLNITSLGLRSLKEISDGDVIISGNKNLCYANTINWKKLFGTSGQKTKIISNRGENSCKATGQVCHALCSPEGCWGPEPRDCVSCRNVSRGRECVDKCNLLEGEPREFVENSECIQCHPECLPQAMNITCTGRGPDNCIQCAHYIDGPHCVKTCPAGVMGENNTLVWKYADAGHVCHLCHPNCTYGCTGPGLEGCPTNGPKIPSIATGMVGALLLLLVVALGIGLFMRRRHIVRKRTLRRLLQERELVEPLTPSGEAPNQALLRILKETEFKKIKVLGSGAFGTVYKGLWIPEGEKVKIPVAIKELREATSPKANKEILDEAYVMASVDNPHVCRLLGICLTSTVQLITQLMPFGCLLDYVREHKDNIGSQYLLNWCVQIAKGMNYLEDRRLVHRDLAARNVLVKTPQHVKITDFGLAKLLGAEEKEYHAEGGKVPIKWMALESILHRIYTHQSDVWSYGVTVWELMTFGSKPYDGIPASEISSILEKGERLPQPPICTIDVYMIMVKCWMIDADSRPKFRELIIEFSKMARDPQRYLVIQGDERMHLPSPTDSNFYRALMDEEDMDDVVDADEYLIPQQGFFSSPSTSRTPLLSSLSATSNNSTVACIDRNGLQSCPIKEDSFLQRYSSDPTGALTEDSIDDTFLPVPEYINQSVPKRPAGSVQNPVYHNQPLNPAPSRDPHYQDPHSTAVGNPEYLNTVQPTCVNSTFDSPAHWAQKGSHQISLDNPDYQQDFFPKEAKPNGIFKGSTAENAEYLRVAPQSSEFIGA

| inhibition at 0.1 µM (EGFR) | inhibition at 0.1 µM (PI3Kα) | inhibition at 0.1 µM (DNA-PK) | Compound |
| --- | --- | --- | --- |
| > 90% | 80 to 90% | > 90% | Cc1ncc(-c2ccc3ncnc(Nc4cccc(Cl)c4F)c3c2)cc1NS(C)(=O)=O [Compound 1, N-[5-[4-(3-chloro-2-fluoro-anilino)quinazolin-6-yl]-2-methyl-3-pyridyl] methanesulfonamide] |
| > 90% | 10 to 80% | 80 to 90% | CS(=O)(=O)Nc1cncc(-c2ccc3ncnc(Nc4cccc(Cl)c4F)c3c2)c1 [Compound 3, N-[5-[4-(3-chloro-2-fluoro-anilino)quinazolin-6-yl]-3-pyridyl] methanesulfonamide] |
| > 90% | > 90% | 80 to 90% | COc1ncc(-c2ccc3ncnc(Nc4cccc(Cl)c4F)c3c2)cc1NS(C)(=O)=O [Compound 2, N-[5-[4-(3-chloro-2-fluoro-anilino)quinazolin-6-yl]-2-methoxy-3-pyridyl] methanesulfonamide] |
